# Like-named read-outs stand apart in the source and are kept apart here. Non-standard residues stand in square brackets, D forms with d. Residues, ends and D or L forms follow the SMILES beside them. Phg = N[C@H](C(=O)O)c1ccccc1
# Columns and labels:
# [1] = cited from earlier work; for sweetness intensity: background art values; for taste: taste in words, background art
# [2] = Sweetness intensity relative to sucrose, taste panel; type: in vivo, Male subjects; details: based on informal panel testing
# Text: The sweetness intensity of the esters and amides of the present invention relative to sucrose can be determined according to the following procedure:
# Male subjects are chosen at random from a group of about 20 persons who have previously been selected on the basis of proven tasting acuity, i.e., persons who could.easily recognize the four basic tastes (sweet, sour, bitter and salty) and who are adept at quantifying their own physiological response numerically. The subjects are asked to taste and expectorate about 10 ml of a test sample (temperature of about 22°C) having dissolved therein the ester of amide. […] Sweetness intensity of the test sample is recorded by the subject making a mark on the linear scale at a point they consider equal in sweetness among the standard samples; interpolation between standards is encouraged. After completion of the panel, a five point numeric scale is superimposed on the linear scales to obtain numerical data; data is averaged and recorded to.the nearest 0.25 unit..Equivalent sucrose sweetness is determined by referring to graphs of (w/v) sucrose concentration in the standard samples versus a linear numeric scale.
# Sweetness intensity is calculated by dividing the concentration (w/v) of perceived sweetness by the concentration (w/v) of the ester or amide required to produce that sweetness. […]
# [3] = carbonated beverages; background statement; cited from earlier work
Compound,sweetness intensity [1],also measured
C[C@@H](NC(=O)[C@@H](N)CC(=O)O)C(=O)NC1C(C)(C)S(=O)(=O)C1(C)C,1000 times that of sucrose,–
"CC12CCC(O1)C(C)(C)C2OC(=O)C(NC(=O)C(N)CC(=O)O)c1ccccc1 (single isomer, unassigned) [Example 2, alpha-L-Aspartyl-D-phenylglycine-alpha-7-oxa-fenchyl ester]",–,sweetness intensity [2]: approximately 1000 X
"C[C@@H](NC(=O)[C@@H](N)CC(=O)O)C(=O)NC1C(C)(C)SC1(C)C [2,2,4,4-tetramethylthietan-3-yl]",2000 times that of sucrose,–
"CC1CCC(C)C1NC(=O)[C@@H](C)NC(=O)[C@@H](N)CC(=O)O (stereo partly drawn) [2,5-dimethylcyclopentyl]",520 times that of sucrose,–
"CC1CCCC(C)C1NC(=O)[C@@H](C)NC(=O)[C@@H](N)CC(=O)O (stereo partly drawn) [2,6-dimethylcyclohexyl]",600 times that of sucrose,–
O=C1NS(=O)(=O)c2ccccc21 [Saccharin],about 300 times that of sucrose,taste [1]: undesirable lingering bitter aftertaste
"COC(=O)[C@H](Cc1ccccc1)NC(=O)[C@@H](N)CC(=O)O [aspartame, a/pha-L-aspartyl-L-phenylalanine lower alkyl esters, in particular the methyl ester known as aspartame] (H-Asp-Phe-OMe)",150-200 times that of sucrose,hydrolytic stability [3]: hydrolytically unstable in most carbonated beverages
C[C@@H](NC(=O)[C@@H](N)CC(=O)O)C(=O)NC(C1CC1)C1CC1 [dicyclopropylcarbinyl],1200 times that of sucrose,–
C[C@@H](NC(=O)[C@@H](N)CC(=O)O)C(=O)NC1C2(C)CCC(C2)C1(C)C (stereo partly drawn) [fenchyl],320 times that of sucrose,–
COC(=O)[C@@H](Cc1ccccc1)NC(=O)[C@@H](N)CC(=O)O [methyl ester of L-aspartyl-D-phenylalanine] (H-Asp-[dF]-OMe),–,taste [1]: bitter
COC(=O)[C@@H](NC(=O)[C@@H](N)CC(=O)O)c1ccccc1 [methyl ester of L-aspartyl-L-phenylglycine] (H-Asp-[Phg]-OMe),100-1000 times that of sucrose,taste [1]: quite sweet
COC(=O)C(NC(=O)[C@@H](N)CC(=O)O)C(=O)OC1C2(C)CCC(C2)C1(C)C (stereo partly drawn) [methyl],–,"sweetness intensity ([1]; listed as R^1a is methyl ester group, R^2a is fenchyl group): 22,200-33,200 times that of sucrose"
